# Reference: ChEMBL document CHEMBL4477252, “Optimization of microtubule affinity regulating kinase (MARK) inhibitors with improved physical properties” (Bioorg Med Chem Lett, 2016)
# pIC50: −log10 of the molar value.
# Columns and labels:
# [1] = molecular target: NT-3 growth factor receptor (Homo sapiens, UniProt Q16288); assay: Inhibition of recombinant human His-tagged cytoplasmic NTRK3 expressed in baculovirus expression system by Z'-LYTE assay
# [2] = molecular target: MAP kinase-activated protein kinase 2 (Homo sapiens, UniProt P49137); assay: Inhibition of full-length recombinant human His-tagged MAPKAPK2 expressed in Escherichia coli by Z'-LYTE assay
# [3] = molecular target: Tyrosine-protein kinase Lck (Homo sapiens, UniProt P06239); assay: Inhibition of full-length recombinant human His-tagged LCK expressed in baculovirus expression system by Z'-LYTE assay
# Ephrin type-A receptor 3 = molecular target: T1, Ephrin type-A receptor 3 (Homo sapiens, UniProt P29320); assay: Inhibition of recombinant human His-tagged cytoplasmic EPHA3 expressed in baculovirus expression system by LanthaScreen assay
# T1 sequence (P29320 whole entry): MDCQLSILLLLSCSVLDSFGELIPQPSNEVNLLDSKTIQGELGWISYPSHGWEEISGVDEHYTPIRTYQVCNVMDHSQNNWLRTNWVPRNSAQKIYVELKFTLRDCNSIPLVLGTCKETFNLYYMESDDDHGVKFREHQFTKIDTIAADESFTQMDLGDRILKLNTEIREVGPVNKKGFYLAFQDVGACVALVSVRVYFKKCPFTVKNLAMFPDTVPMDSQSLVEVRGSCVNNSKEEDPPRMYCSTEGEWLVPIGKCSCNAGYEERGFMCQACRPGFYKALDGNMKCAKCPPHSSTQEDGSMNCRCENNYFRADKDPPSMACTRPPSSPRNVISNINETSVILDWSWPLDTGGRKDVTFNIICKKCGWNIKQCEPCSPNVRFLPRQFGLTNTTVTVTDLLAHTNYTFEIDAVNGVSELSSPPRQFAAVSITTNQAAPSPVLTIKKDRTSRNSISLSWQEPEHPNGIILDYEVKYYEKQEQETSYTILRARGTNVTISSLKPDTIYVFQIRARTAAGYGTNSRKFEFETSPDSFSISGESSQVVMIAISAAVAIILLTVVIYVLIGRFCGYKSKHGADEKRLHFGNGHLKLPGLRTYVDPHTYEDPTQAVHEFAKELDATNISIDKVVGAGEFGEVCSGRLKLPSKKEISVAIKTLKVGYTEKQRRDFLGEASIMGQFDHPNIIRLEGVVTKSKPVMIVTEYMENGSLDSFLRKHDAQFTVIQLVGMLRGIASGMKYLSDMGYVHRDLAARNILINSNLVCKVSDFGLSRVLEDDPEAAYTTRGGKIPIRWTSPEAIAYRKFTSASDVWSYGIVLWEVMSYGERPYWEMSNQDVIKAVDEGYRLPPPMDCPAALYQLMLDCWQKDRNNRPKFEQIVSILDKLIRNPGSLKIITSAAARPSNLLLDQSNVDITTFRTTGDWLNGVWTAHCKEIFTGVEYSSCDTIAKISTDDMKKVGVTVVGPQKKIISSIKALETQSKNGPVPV
# [4] = molecular target: Non-receptor tyrosine-protein kinase TYK2 (Homo sapiens, UniProt P29597); assay: Inhibition of recombinant human N-terminal GST-tagged cytoplasmic TYK2 (833 to 1187 residues) catalytic domain expressed in baculovirus expression system by Z'-LYTE assay
# [5] = molecular target: T2, 3-phosphoinositide-dependent protein kinase 1 (Homo sapiens, UniProt O15530); assay: Inhibition of full-length recombinant human His-tagged PDK1 expressed in baculovirus expression system by Z'-LYTE assay
# T2 sequence (O15530 whole entry): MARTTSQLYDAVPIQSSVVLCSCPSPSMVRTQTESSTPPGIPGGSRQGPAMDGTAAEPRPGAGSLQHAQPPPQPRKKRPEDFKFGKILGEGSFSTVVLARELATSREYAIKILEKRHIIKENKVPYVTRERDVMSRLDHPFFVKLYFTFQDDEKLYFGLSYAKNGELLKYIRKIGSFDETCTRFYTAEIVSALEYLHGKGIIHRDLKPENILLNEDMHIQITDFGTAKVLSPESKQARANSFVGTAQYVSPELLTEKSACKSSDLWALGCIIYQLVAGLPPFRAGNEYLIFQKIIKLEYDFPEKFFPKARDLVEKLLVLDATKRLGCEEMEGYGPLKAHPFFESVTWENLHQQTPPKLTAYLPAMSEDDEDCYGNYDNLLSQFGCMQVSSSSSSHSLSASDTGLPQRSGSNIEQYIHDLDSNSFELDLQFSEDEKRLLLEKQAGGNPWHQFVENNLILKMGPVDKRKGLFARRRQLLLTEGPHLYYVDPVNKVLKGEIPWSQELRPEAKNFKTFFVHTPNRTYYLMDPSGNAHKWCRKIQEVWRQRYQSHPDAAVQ
# [6] = molecular target: T3, Receptor-type tyrosine-protein kinase FLT3 (Homo sapiens, UniProt P36888); assay: Inhibition of recombinant human His-tagged cytoplasmic FLT3 expressed in baculovirus expression system by Z'-LYTE assay
# T3 sequence (P36888 whole entry): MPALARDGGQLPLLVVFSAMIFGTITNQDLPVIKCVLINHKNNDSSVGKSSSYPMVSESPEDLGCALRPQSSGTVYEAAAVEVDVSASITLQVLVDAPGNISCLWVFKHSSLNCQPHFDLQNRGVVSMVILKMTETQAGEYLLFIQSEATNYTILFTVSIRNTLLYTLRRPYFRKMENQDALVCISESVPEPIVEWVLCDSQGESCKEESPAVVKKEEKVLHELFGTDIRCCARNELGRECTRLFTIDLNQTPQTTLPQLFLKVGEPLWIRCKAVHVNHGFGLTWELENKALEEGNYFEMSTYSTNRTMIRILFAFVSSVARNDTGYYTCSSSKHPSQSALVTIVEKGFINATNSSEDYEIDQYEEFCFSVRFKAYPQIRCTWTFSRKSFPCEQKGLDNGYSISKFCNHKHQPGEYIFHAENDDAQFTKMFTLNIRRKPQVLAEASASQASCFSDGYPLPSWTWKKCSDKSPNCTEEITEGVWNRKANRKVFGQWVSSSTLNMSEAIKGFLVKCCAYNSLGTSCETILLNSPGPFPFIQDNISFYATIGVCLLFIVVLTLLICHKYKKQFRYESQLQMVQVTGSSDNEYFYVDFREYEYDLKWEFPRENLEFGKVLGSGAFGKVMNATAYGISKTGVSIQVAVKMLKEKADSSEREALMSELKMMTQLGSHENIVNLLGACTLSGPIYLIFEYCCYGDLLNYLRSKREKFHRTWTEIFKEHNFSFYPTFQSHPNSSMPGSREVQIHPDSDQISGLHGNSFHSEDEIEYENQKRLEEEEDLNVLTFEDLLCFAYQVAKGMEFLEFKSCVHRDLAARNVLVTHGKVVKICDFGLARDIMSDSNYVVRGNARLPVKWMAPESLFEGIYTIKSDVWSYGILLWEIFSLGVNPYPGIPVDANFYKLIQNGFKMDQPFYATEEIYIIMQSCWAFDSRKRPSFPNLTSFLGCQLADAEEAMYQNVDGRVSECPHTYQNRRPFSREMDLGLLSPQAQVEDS
# [7] = molecular target: Interleukin-1 receptor-associated kinase 1 (Homo sapiens, UniProt P51617); assay: Inhibition of recombinant human GST-tagged IRAK1 (194 to 712 residues) catalytic domain expressed in baculovirus expression system by Adapta assay
# Sequence of Interleukin-1 receptor-associated kinase 1 (P51617 whole entry, the tested form may be a part): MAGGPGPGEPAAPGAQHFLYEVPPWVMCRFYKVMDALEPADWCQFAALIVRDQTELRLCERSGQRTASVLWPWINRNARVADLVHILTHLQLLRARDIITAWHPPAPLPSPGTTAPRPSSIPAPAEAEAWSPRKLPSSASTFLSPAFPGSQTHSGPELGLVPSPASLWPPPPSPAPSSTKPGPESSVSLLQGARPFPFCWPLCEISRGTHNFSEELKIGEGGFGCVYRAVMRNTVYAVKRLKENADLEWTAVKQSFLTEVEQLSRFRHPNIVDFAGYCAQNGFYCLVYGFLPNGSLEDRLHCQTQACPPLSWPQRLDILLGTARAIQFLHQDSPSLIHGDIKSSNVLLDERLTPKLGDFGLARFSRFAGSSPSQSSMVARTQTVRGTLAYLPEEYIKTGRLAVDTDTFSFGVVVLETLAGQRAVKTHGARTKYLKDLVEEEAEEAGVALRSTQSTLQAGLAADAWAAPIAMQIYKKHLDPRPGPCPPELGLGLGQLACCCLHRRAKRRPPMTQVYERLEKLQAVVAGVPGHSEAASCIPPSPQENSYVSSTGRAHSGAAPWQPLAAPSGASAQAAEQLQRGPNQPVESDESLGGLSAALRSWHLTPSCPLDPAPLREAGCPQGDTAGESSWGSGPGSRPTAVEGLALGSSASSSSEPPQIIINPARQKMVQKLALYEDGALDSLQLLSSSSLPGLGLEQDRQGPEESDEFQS
# Sequence of MAP kinase-activated protein kinase 2 (P49137 whole entry): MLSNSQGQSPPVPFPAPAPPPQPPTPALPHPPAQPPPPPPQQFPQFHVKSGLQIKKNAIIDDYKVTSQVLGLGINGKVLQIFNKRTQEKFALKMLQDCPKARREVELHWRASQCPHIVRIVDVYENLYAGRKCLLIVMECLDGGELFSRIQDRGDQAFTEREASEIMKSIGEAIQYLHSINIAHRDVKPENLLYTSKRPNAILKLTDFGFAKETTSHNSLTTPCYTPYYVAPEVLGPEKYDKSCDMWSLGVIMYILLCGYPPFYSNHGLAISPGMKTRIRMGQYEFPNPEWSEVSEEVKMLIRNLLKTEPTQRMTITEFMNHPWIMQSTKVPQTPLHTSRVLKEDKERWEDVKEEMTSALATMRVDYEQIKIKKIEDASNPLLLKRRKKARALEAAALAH
# Sequence of Tyrosine-protein kinase Lck (P06239 whole entry): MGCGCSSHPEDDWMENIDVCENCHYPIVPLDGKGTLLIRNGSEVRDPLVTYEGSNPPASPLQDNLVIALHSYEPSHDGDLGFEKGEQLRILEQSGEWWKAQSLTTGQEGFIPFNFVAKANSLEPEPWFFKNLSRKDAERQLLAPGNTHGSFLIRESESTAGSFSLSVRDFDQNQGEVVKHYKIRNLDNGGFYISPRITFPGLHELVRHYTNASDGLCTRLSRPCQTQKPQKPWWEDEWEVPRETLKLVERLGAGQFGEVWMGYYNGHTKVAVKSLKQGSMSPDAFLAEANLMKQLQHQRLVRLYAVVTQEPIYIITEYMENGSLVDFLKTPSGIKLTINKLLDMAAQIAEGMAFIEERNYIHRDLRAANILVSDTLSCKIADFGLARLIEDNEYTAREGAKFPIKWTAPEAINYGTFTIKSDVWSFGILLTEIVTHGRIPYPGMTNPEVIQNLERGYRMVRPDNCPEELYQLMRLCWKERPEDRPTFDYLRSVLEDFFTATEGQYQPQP
# Sequence of Non-receptor tyrosine-protein kinase TYK2 (P29597 whole entry, the tested form may be a part): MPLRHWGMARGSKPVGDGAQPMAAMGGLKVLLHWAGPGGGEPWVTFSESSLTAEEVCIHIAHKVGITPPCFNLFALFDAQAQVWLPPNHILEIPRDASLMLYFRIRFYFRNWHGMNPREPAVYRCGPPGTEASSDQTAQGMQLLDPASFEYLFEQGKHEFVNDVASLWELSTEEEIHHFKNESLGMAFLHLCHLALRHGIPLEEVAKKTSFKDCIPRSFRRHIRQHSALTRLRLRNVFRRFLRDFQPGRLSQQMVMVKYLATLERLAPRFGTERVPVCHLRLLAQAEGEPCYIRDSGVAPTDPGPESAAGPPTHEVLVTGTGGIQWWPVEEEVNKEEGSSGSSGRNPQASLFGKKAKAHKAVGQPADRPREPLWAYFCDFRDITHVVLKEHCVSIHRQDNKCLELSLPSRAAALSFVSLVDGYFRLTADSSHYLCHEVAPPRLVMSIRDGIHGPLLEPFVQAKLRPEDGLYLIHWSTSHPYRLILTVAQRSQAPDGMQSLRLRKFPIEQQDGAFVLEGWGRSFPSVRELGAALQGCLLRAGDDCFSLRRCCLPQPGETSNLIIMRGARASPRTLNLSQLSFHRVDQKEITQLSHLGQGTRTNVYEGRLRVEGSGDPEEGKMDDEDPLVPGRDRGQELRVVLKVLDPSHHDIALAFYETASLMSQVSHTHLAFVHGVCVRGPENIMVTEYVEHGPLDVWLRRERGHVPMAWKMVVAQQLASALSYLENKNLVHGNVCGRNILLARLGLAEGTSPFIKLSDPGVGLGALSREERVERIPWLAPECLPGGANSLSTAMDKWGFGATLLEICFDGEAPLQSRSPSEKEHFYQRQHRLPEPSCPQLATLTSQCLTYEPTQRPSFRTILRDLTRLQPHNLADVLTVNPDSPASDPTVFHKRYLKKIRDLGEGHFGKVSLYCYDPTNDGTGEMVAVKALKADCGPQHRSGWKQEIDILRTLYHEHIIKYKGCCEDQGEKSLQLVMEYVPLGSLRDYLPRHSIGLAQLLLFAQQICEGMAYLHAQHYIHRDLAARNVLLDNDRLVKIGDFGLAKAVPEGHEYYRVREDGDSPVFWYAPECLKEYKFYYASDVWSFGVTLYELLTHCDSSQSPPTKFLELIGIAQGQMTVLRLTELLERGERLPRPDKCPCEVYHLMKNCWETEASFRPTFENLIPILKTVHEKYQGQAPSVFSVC
# Sequence of NT-3 growth factor receptor (Q16288 whole entry): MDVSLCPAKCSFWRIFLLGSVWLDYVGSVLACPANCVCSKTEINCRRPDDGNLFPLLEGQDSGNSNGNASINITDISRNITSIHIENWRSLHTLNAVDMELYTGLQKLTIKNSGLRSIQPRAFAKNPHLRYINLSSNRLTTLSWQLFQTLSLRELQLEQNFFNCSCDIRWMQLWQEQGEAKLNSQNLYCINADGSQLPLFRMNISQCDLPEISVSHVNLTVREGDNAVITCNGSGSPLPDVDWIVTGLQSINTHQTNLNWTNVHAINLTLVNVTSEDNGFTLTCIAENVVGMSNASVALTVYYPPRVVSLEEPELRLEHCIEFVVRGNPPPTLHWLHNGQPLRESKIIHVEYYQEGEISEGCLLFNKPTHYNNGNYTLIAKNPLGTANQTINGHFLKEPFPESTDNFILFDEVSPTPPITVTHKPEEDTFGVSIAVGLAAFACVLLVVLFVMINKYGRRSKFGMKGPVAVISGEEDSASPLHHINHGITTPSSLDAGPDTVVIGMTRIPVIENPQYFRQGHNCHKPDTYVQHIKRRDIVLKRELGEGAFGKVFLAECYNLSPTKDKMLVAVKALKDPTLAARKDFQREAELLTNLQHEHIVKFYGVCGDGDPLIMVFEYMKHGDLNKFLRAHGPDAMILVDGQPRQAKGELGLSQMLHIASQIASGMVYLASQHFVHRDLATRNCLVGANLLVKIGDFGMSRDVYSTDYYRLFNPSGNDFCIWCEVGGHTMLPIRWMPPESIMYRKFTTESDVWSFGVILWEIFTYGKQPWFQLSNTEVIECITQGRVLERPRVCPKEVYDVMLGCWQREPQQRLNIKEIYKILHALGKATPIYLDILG
SMILES,pIC50 [1],pIC50 [2],pIC50 [3],pIC50 (Ephrin type-A receptor 3),pIC50 [4],pIC50 [5],pIC50 [6],pIC50 [7]
Cn1cc(-c2cnc3c(-c4csc(C(=O)NCC(F)(F)F)c4)cnn3c2)cn1,6.92,< 4.00,7.43,7.28,7.04,7.28,> 8.00,7.72
Cc1sc(C(=O)N[C@@H]2[C@H](N)CCCC2(F)F)cc1-c1cnn2cc(Cl)cnc12,5.85,5.11,5.30,< 4.00,5.00,6.48,6.24,5.72
O=C(NCC(F)(F)F)c1cc(-c2cnn3cc(-c4ccc(OCCN5CCCCC5)cc4)cnc23)cs1,6.42,4.26,7.72,6.74,7.12,6.89,> 8.00,> 8.00
Cn1cc(-c2cnc3c(-c4csc(C(=O)N[C@@H]5CCCC[C@@H]5N)c4)cnn3c2)cn1 (racemic),7.89,6.41,8.41,7.66,7.28,7.70,8.72,8.05
